For orientation: IC50 means the concentration needed to halve the response being measured. A word on the GI50: it is the concentration that inhibits growth by half. Read a high GI50 as lower sensitivity of the cells.

The record followed here is US20240239792A1, “MODULATORS OF BCL-2 OR BCL-2/BCL-XL AND USES THEREOF” (APPICINE THERAPEUTICS (HK) LIMITED, priority 2021, published 2024).

Assay [1] has as its target T1, BCL-2 (Homo sapiens, UniProt P10415).
T1 construct: purchased Cisbio 63ADK000CB01PEG
The assay can be described thus: HTRF BCL-2/BAK assay (Cisbio). Format: binding. To be noted: recombinant human Tag1-BCL-2 2 nM, Tag2-BAK 10 nM. As for the experimental part: Then the pre-mixed anti-Tag1-Eu^3+ and anti-tag2-XL665 were added to the plate and further incubated at room temperature for another 2 hours. The signals ([…]) were read on Envision 2104 instrument. The IC50 for each compound was derived from fitting the signal of 665/615 nM to the increasing compound concentration.
Using the above assays, the following compounds were tested.

Assay [2] deals with DOHH2 cells. The assay can be described thus: CellTiter-Glo cell proliferation assay, DOHH2 cells. It counts as cell-based. As to conditions: Homo sapiens, DOHH-2, 72 hours. As for the experimental part:
The CellTiter-Glo® Luminescent Cell Viability Assay (Promega, G7573) was used to study the cellular potency of disclosed compounds herein. The cells were harvested during the logarithmic growth period and counted with hemocytometer. The DOHH2 cells were seeded at 1.6*10^4 in 90 ul DMEM medium supplemented with 10% fetal bovine serum (FBS) (as RS4;11 cells were seeded at 4000 in 90 ul RPMI-1640 medium with 10% FBS) per well in 96-well plates and treated with 10 ul of a serial dilution of compounds disclosed herein (maximum concentration and dilution ratio determined by the results of pre-experiment may vary) for 72 hours in a 5% CO2 incubator at 37° C. Cell viability was assessed according to the manufacturer's recommendations. After the plates return to the room temperature, 100 ul of CellTiter-Glo® reagent was added to 100 ul of cell culture. The mixture was agitated on an orbital shaker for 2 minutes or placed it at room temperature for 10 minutes to allow cell lysis and stabilization of luminescent signals. Luminescent signals were recorded using Envision 2104 instrument. And GI50 values were then calculated.
Background: Cellular ATP, detected with luciferase, serves as a proxy for viable cell number.

T1 sequence (P10415 whole entry): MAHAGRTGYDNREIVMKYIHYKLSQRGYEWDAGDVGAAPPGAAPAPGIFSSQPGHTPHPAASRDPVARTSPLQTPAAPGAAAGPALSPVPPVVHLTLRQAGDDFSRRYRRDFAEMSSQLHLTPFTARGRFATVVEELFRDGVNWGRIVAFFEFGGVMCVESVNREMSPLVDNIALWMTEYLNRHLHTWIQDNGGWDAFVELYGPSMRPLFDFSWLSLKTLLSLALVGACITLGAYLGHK

For the compound `Cc1nnc2n1CC(CNc1ccc(S(=O)(=O)NC(=O)c3ccc(N4CCN(C5CCCCc6c(Cl)cccc65)CC4)cc3Oc3cnc4[nH]ccc4c3)cc1[N+](=O)[O-])CC2` (centres unmarked) [Compound 57, 2-((1H-pyrrolo[2,3-b]pyridin-5-yl)oxy)-4-(4-(1-chloro-6,7,8,9-tetrahydro-5H-benzo[7]annulen-5-yl)piperazin-1-yl)-N-((4-(((3-methyl-5,6,7,8-tetrahydro-[1,2,4]triazolo[4,3-a]pyridin-6-yl)methyl)amino)-3-nitrophenyl)sulfonyl)benzamide], in assay [1], the IC50 is under 20 nM. Further, in assay [2], the GI50 was in the range of 500 to 5000 nM.

As to `O=C(NS(=O)(=O)c1ccc(NCC2CC3(CCCCC3)C2)c([N+](=O)[O-])c1)c1ccc(N2CCN([C@@H]3CCCCc4c(Cl)cccc43)CC2)cc1Oc1cnc2[nH]ccc2c1` [Compound 132, (R)-2-((1H-pyrrolo[2,3-b]pyridin-5-yl)oxy)-4-(4-(1-chloro-6,7,8,9-tetrahydro-5H-benzo[7]annulen-5-yl)piperazin-1-yl)-N-((3-nitro-4-((spiro[3.5]nonan-2-ylmethyl)amino)phenyl)sulfonyl)benzamide], the half-maximal inhibitory concentration (IC50) in assay [1] was under 20 nM. The 50% growth inhibitory concentration (GI50) in assay [2] lay in the range of 50 to 500 nM.

For the compound `O=C(NS(=O)(=O)c1ccc(NCC2CCOCC2)c([N+](=O)[O-])c1)c1ccc(N2CC3(CCN(C4CCCCc5ccccc54)CC3)C2)cc1Oc1cnc2[nH]ccc2c1` (centres unmarked) [Compound 97, 2-((1H-pyrrolo[2,3-b]pyridin-5-yl)oxy)-N-((3-nitro-4-(((tetrahydro-2H-pyran-4-yl)methyl)amino)phenyl)sulfonyl)-4-(7-(6,7,8,9-tetrahydro-5H-benzo[7]annulen-5-yl)-2,7-diazaspiro[3.5]nonan-2-yl)benzamide], in assay [1], the half-maximal inhibitory concentration (IC50) is 20 to 200 nM. In assay [2], this compound came in with a GI50 of 500 to 5000 nM.

Regarding `CC(=O)Nc1cccc2c1CCCCC2N1CCN(c2ccc(C(=O)NS(=O)(=O)c3ccc(NCC4CCOCC4)c([N+](=O)[O-])c3)c(Oc3cnc4[nH]ccc4c3)c2)CC1` (centres unmarked) [Compound 59, 2-((1H-pyrrolo[2,3-b]pyridin-5-yl)oxy)-4-(4-(1-acetamido-6,7,8,9-tetrahydro-5H-benzo[7]annulen-5-yl)piperazin-1-yl)-N-((3-nitro-4-(((tetrahydro-2H-pyran-4-yl)methyl)amino)phenyl)sulfonyl)benzamide], the half-inhibitory concentration (IC50) in assay [1] is under 20 nM. For the same compound, the GI50 in assay [2] was over 5000 nM.

With `O=C(NS(=O)(=O)c1ccc(NCC2CCOCC2)c([N+](=O)[O-])c1)c1ccc(N2CCN(C3CCc4ccccc43)CC2)cc1Oc1cnc2[nH]ccc2c1` (centres unmarked) [Compound 4, 2-((1H-pyrrolo[2,3-b]pyridin-5-yl)oxy)-4-(4-(2,3-dihydro-1H-inden-1-yl)piperazin-1-yl)-N-((3-nitro-4-(((tetrahydro-2H-pyran-4-yl)methyl)amino)phenyl)sulfonyl)benzamide], the IC50 in assay [1] is 20 to 200 nM. In assay [2], this compound came in with a GI50 of 500 to 5000 nM.

In the case of `O=C(NS(=O)(=O)c1ccc(NCC2CCOCC2)c([N+](=O)[O-])c1)c1ccc(N2CCN(C3CCCCc4c(Cl)cccc43)CC2)cc1Oc1cnc2[nH]ccc2c1` (centres unmarked) [Compound 27, 2-((1H-pyrrolo[2,3-b]pyridin-5-yl)oxy)-4-(4-(1-chloro-6,7,8,9-tetrahydro-5H-benzo[7]annulen-5-yl)piperazin-1-yl)-N-((3-nitro-4-(((tetrahydro-2H-pyran-4-yl)methyl)amino)phenyl)sulfonyl)benzamide], the concentration for half-maximal inhibition (IC50) in assay [1] was under 20 nM. Also, the 50% growth inhibitory concentration (GI50) in assay [2] was under 50 nM.

Turning to `O=C(NS(=O)(=O)c1ccc(NCC2CCOCC2)c([N+](=O)[O-])c1)c1ccc(N2CC3(CCN(C4CCCc5ccccc54)CC3)C2)cc1Oc1cnc2[nH]ccc2c1` (centres unmarked) [Compound 92, 2-((1H-pyrrolo[2,3-b]pyridin-5-yl)oxy)-N-((3-nitro-4-(((tetrahydro-2H-pyran-4-yl)methyl)amino)phenyl)sulfonyl)-4-(7-(1,2,3,4-tetrahydronaphthalen-1-yl)-2,7-diazaspiro[3.5]nonan-2-yl)benzamide], the IC50 in assay [1] was in the range of 20 to 200 nM. In addition, in assay [2], the GI50 is 500 to 5000 nM.

As to `O=C(NS(=O)(=O)c1ccc(NCC2CCOCC2)c([N+](=O)[O-])c1)c1ccc(N2CC3(C2)CN(C2CCCCc4ccccc42)C3)cc1Oc1cnc2[nH]ccc2c1` (centres unmarked) [Compound 95, 2-((1H-pyrrolo[2,3-b]pyridin-5-yl)oxy)-N-((3-nitro-4-(((tetrahydro-2H-pyran-4-yl)methyl)amino)phenyl)sulfonyl)-4-(6-(6,7,8,9-tetrahydro-5H-benzo[7]annulen-5-yl)-2,6-diazaspiro[3.3]heptan-2-yl)benzamide], the IC50 in assay [1] was 20 to 200 nM. In addition, in assay [2], the GI50 fell in the range of 500 to 5000 nM.

Take `O=C(NS(=O)(=O)c1ccc(NCC2CCOCC2)c([N+](=O)[O-])c1)c1ccc(N2CCN(C3CCOc4ccccc43)CC2)cc1Oc1cnc2[nH]ccc2c1` (centres unmarked) [Compound 17, 2-((1H-pyrrolo[2,3-b]pyridin-5-yl)oxy)-4-(4-(chroman-4-yl)piperazin-1-yl)-N-((3-nitro-4-(((tetrahydro-2H-pyran-4-yl)methyl)amino)phenyl)sulfonyl)benzamide]: in assay [1], the concentration for half-maximal inhibition (IC50) is 20 to 200 nM. Also, in assay [2], the 50% growth inhibitory concentration (GI50) was 500 to 5000 nM.

For the compound `O=C(NS(=O)(=O)c1ccc(NCC2CCOCC2)c([N+](=O)[O-])c1)c1ccc(N2CC3(CCN(C4CCCCc5ccccc54)C3)C2)cc1Oc1cnc2[nH]ccc2c1` (centres unmarked) [Compound 98, 2-((1H-pyrrolo[2,3-b]pyridin-5-yl)oxy)-N-((3-nitro-4-(((tetrahydro-2H-pyran-4-yl)methyl)amino)phenyl)sulfonyl)-4-(6-(6,7,8,9-tetrahydro-5H-benzo[7]annulen-5-yl)-2,6-diazaspiro[3.4]octan-2-yl)benzamide], the IC50 in assay [1] lay within 20 to 200 nM. The GI50 in assay [2] was 500 to 5000 nM.

Turning to `O=C(NS(=O)(=O)c1ccc(NCC2CC3(CCC4(CC3)OCCO4)C2)c([N+](=O)[O-])c1)c1ccc(N2CCN([C@@H]3CCCCc4c(Cl)cccc43)CC2)cc1Oc1cnc2[nH]ccc2c1` [Compound 133, (R)-2-((1H-pyrrolo[2,3-b]pyridin-5-yl)oxy)-N-((4-(((8,11-dioxadispiro[3.2.47.24]tridecan-2-yl)methyl)amino)-3-nitrophenyl)sulfony1)-4-(4-(1-chloro-6,7,8,9-tetrahydro-5H-benzo[7]annulen-5-yl)piperazin-1-yl)benzamide], in assay [1], the concentration for half-maximal inhibition (IC50) was under 20 nM. Moreover, in assay [2], the 50% growth inhibitory concentration (GI50) was under 50 nM.

As for `O=C(NS(=O)(=O)c1ccc(NCC2CCOCC2)c([N+](=O)[O-])c1)c1ccc(N2CCN(C3CCCCc4c(C5CCCC5)cccc43)CC2)cc1Oc1cnc2[nH]ccc2c1` (centres unmarked) [Compound 55, 2-((1H-pyrrolo[2,3-b]pyridin-5-yl)oxy)-4-(4-(1-cyclopentyl-6,7,8,9-tetrahydro-5H-benzo[7]annulen-5-yl)piperazin-1-yl)-N-((3-nitro-4-(((tetrahydro-2H-pyran-4-yl)methyl)amino)phenyl)sulfonyl)benzamide], the IC50 in assay [1] was in the range of 20 to 200 nM. The GI50 in assay [2] was over 5000 nM.

On to `O=C(NS(=O)(=O)c1ccc(NCC2CC3CC2CN3)c([N+](=O)[O-])c1)c1ccc(N2CCN([C@@H]3CCCCc4c(Cl)cccc43)CC2)cc1Oc1cnc2[nH]ccc2c1` (stereo partly drawn) [Compound 105, 2-((1H-pyrrolo[2,3-b]pyridin-5-yl)oxy)-N-((4-(((2-azabicyclo[2.2.1]heptan-5-yl)methyl)amino)-3-nitrophenyl)sulfonyl)-4-(4-((R)-1-chloro-6,7,8,9-tetrahydro-5H-benzo[7]annulen-5-yl)piperazin-1-yl)benzamide], for which the IC50 in assay [1] is under 20 nM. The same compound displayed a GI50 in assay [2] of 50 to 500 nM.

Regarding `O=C(O)CCN1CCC2(CC1)CC(CNc1ccc(S(=O)(=O)NC(=O)c3ccc(N4CCN([C@@H]5CCCCc6c(Cl)cccc65)CC4)cc3Oc3cnc4[nH]ccc4c3)cc1[N+](=O)[O-])C2` [Compound 126, (R)-3-(2-(((4-(N-(2-((1H-pyrrolo[2,3-b]pyridin-5-yl)oxy)-4-(4-(1-chloro-6,7,8,9-tetrahydro-5H-benzo[7]annulen-5-yl)piperazin-1-yl)benzoyl)sulfamoyl)-2-nitrophenyl)amino)methyl)-7-azaspiro[3.5]nonan-7-yl)propanoic acid], in assay [1], the concentration for half-maximal inhibition (IC50) is under 20 nM. The GI50 in assay [2] is under 50 nM.

Consider `O=C(NS(=O)(=O)c1ccc(NCC2CCOCC2)c([N+](=O)[O-])c1)c1ccc(N2CCN(C3CCCOc4ccccc43)CC2)cc1Oc1cnc2[nH]ccc2c1` (centres unmarked) [Compound 36, 2-((1H-pyrrolo[2,3-b]pyridin-5-yl)oxy)-N-((3-nitro-4-(((tetrahydro-2H-pyran-4-yl)methyl)amino)phenyl)sulfonyl)-4-(4-(2,3,4,5-tetrahydrobenzo[b]oxepin-5-yl)piperazin-1-yl)benzamide], for which the IC50 in assay [1] is under 20 nM. Further, the GI50 in assay [2] lay in the range of 50 to 500 nM.

For `O=C(NS(=O)(=O)c1ccc(NCC2CCOCC2)c([N+](=O)[O-])c1)c1ccc(N2CC3(C2)CN(C2CCCc4ccccc42)C3)cc1Oc1cnc2[nH]ccc2c1` (centres unmarked) [Compound 96, 2-((1H-pyrrolo[2,3-b]pyridin-5-yl)oxy)-N-((3-nitro-4-(((tetrahydro-2H-pyran-4-yl)methyl)amino)phenyl)sulfonyl)-4-(6-(1,2,3,4-tetrahydronaphthalen-1-yl)-2,6-diazaspiro[3.3]heptan-2-yl)benzamide], the 50% inhibitory concentration (IC50) in assay [1] was 20 to 200 nM. In addition, the GI50 in assay [2] is over 5000 nM.
